According to PubChem BioAssay (NCI):
“And” between values parts separate entries of the source, which are not always exact repeats. Equal entries are not always repeated.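 Method: 48-hour compound exposure of cells in 96-well plates, five concentrations, linear interpolation of endpoints. GI50 = concentration required for 50% inhibition of growth. TGI denotes the concentration required for complete inhibition of growth.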

Experiments:
Test in all cases: NCI-60 cell line screen, 48 h
NCI/ADR-RES ovarian = tested on: NCI/ADR-RES ovarian
SF-295 CNS = tested on: SF-295 CNS
EKVX NSCLC = tested on: EKVX NSCLC
LOX IMVI melanoma = tested on: LOX IMVI melanoma
SN12C renal = tested on: SN12C renal
COLO 205 colon = tested on: COLO 205 colon
HT29 colon = tested on: HT29 colon
KM12 colon = tested on: KM12 colon
SK-MEL-2 melanoma = tested on: SK-MEL-2 melanoma
SW-620 colon = tested on: SW-620 colon
NCI-H226 lung = tested on: NCI-H226 lung
BT-549 breast = tested on: BT-549 breast
MALME-3M melanoma = tested on: MALME-3M melanoma
OVCAR-4 ovarian = tested on: OVCAR-4 ovarian
SNB-75 CNS = tested on: SNB-75 CNS
IGROV1 ovarian = tested on: IGROV1 ovarian
TK-10 renal = tested on: TK-10 renal
MOLT-4 leukemia = tested on: MOLT-4 leukemia
SK-MEL-5 melanoma = tested on: SK-MEL-5 melanoma
OVCAR-8 ovarian = tested on: OVCAR-8 ovarian
CAKI-1 renal = tested on: CAKI-1 renal
PC-3 prostate = tested on: PC-3 prostate
RPMI-8226 leukemia = tested on: RPMI-8226 leukemia
SF-539 CNS = tested on: SF-539 CNS
SK-OV-3 ovarian = tested on: SK-OV-3 ovarian
SF-268 CNS = tested on: SF-268 CNS
CCRF-CEM leukemia = tested on: CCRF-CEM leukemia
HOP-62 NSCLC = tested on: HOP-62 NSCLC
T-47D breast = tested on: T-47D breast
HS 578T breast = tested on: HS 578T breast
SNB-19 CNS = tested on: SNB-19 CNS
A498 renal = tested on: A498 renal
NCI-H522 lung = tested on: NCI-H522 lung
HL-60(TB) leukemia = tested on: HL-60(TB) leukemia
HCT-116 colon = tested on: HCT-116 colon
M14 melanoma = tested on: M14 melanoma
SK-MEL-28 melanoma = tested on: SK-MEL-28 melanoma
A549 NSCLC = tested on: A549 NSCLC
MDA-N = tested on: MDA-N
HOP-92 NSCLC = tested on: HOP-92 NSCLC
MDA-MB-435 = tested on: MDA-MB-435
OVCAR-3 ovarian = tested on: OVCAR-3 ovarian
U251 CNS = tested on: U251 CNS
ACHN renal = tested on: ACHN renal
MDA-MB-231 breast = tested on: MDA-MB-231 breast
OVCAR-5 ovarian = tested on: OVCAR-5 ovarian
786-0 renal = tested on: 786-0 renal
HCC-2998 colon = tested on: HCC-2998 colon
DU-145 prostate = tested on: DU-145 prostate
RXF 393 renal = tested on: RXF 393 renal
UACC-257 melanoma = tested on: UACC-257 melanoma
UACC-62 melanoma = tested on: UACC-62 melanoma
HCT-15 colon = tested on: HCT-15 colon
NCI-H23 lung = tested on: NCI-H23 lung
NCI-H460 lung = tested on: NCI-H460 lung
MCF7 breast = tested on: MCF7 breast
UO-31 renal = tested on: UO-31 renal
K-562 leukemia = tested on: K-562 leukemia

COc1cccc2c1C(=O)c1c(O)c3c(c(O)c1C2=O)C[C@@](O)(C(=O)CO)C[C@@H]3OC1CC2C(OCN3CN2COC2C(C)OC(O[C@H]4C[C@](O)(C(=O)CO)Cc5c(O)c6c(c(O)c54)C(=O)c4c(OC)cccc4C6=O)CC23)C(C)O1 (stereo partly specified)
GI50 (NCI/ADR-RES ovarian): 325 nM and 58.6 nM
TGI (NCI/ADR-RES ovarian): 25000 nM and 8210 nM
GI50 (SF-295 CNS): 31.2 nM
TGI (SF-295 CNS): 3450 nM and 1350 nM
GI50 (EKVX NSCLC): 85.5 nM and 19.9 nM
TGI (EKVX NSCLC): 616 nM and 72 nM
TGI (LOX IMVI melanoma): 204 nM and 28.7 nM
GI50 (SN12C renal): 12.1 nM
TGI (SN12C renal): 96.6 nM and 134 nM and 35.9 nM
GI50 (COLO 205 colon): 12.7 nM
TGI (COLO 205 colon): 473 nM and 312 nM
GI50 (HT29 colon): 19.9 nM
TGI (HT29 colon): 148 nM
GI50 (KM12 colon): 46 nM and 17.9 nM
TGI (KM12 colon): 2640 nM and 294 nM
GI50 (SK-MEL-2 melanoma): 23 nM
TGI (SK-MEL-2 melanoma): 112 nM and 67 nM
GI50 (SW-620 colon): 10.4 nM
GI50 (NCI-H226 lung): 35.7 nM and 10.2 nM
GI50 (BT-549 breast): 117 nM and 26.2 nM
TGI (BT-549 breast): 734 nM and 1320 nM and 210 nM
GI50 (MALME-3M melanoma): 15.9 nM
TGI (MALME-3M melanoma): 197 nM and 80.9 nM
GI50 (OVCAR-4 ovarian): 104 nM
TGI (OVCAR-4 ovarian): 5220 nM
GI50 (SNB-75 CNS): 7.56 nM
TGI (SNB-75 CNS): 66.3 nM and 34.2 nM
GI50 (IGROV1 ovarian): 17.6 nM
GI50 (TK-10 renal): 232 nM
TGI (MOLT-4 leukemia): 6.58 nM
GI50 (SK-MEL-5 melanoma): 44.7 nM
TGI (SK-MEL-5 melanoma): 236 nM and 263 nM
GI50 (OVCAR-8 ovarian): 17.6 nM
TGI (OVCAR-8 ovarian): 4220 nM and 1270 nM
GI50 (CAKI-1 renal): 17.5 nM
GI50 (PC-3 prostate): 50.1 nM
TGI (PC-3 prostate): 935 nM and 890 nM
GI50 (RPMI-8226 leukemia): 4.87 nM
TGI (RPMI-8226 leukemia): 11.6 nM
GI50 (SF-539 CNS): 5.53 nM
GI50 (SK-OV-3 ovarian): 131 nM and 42.9 nM
TGI (SK-OV-3 ovarian): 25000 nM and 4710 nM
GI50 (SF-268 CNS): 6.35 nM and 12.2 nM
GI50 (CCRF-CEM leukemia): 3.01 nM
GI50 (HOP-62 NSCLC): 21.8 nM
TGI (HOP-62 NSCLC): 419 nM and 2770 nM and 1230 nM
GI50 (T-47D breast): 69.7 nM
GI50 (HS 578T breast): 32.1 nM
GI50 (SNB-19 CNS): 15.2 nM
TGI (SNB-19 CNS): 3200 nM
GI50 (A498 renal): 3.82 nM
GI50 (NCI-H522 lung): 6.8 nM
TGI (NCI-H522 lung): 160 nM and 53.8 nM
GI50 (HL-60(TB) leukemia): 2.67 nM
GI50 (HCT-116 colon): 16.6 nM
TGI (HCT-116 colon): 537 nM and 85.6 nM
GI50 (M14 melanoma): 50.5 nM
TGI (M14 melanoma): 332 nM and 381 nM
GI50 (SK-MEL-28 melanoma): 49.3 nM
TGI (SK-MEL-28 melanoma): 574 nM and 294 nM
GI50 (A549 NSCLC): 12.8 nM
TGI (A549 NSCLC): 4630 nM
GI50 (MDA-N): 52.2 nM and 21 nM
TGI (MDA-N): 229 nM and 272 nM and 131 nM
GI50 (HOP-92 NSCLC): 15.3 nM and 15.9 nM
TGI (HOP-92 NSCLC): 381 nM and 263 nM and 506 nM
GI50 (MDA-MB-435): 64.9 nM and 26.7 nM
TGI (MDA-MB-435): 374 nM and 352 nM and 133 nM
GI50 (OVCAR-3 ovarian): 46.7 nM and 15.4 nM
GI50 (U251 CNS): 7.72 nM
TGI (U251 CNS): 710 nM and 2600 nM
GI50 (ACHN renal): 8.2 nM
TGI (ACHN renal): 673 nM
GI50 (MDA-MB-231 breast): 48.2 nM
TGI (MDA-MB-231 breast): 705 nM and 893 nM
GI50 (OVCAR-5 ovarian): 88.6 nM and 20.2 nM
GI50 (786-0 renal): 7.92 nM
GI50 (HCC-2998 colon): 75 nM and 23.9 nM
TGI (HCC-2998 colon): 277 nM and 500 nM and 104 nM
GI50 (DU-145 prostate): 11.9 nM
GI50 (RXF 393 renal): 14.8 nM
TGI (RXF 393 renal): 64.1 nM and 148 nM
GI50 (UACC-257 melanoma): 24.4 nM
TGI (UACC-257 melanoma): 198 nM and 381 nM and 136 nM
GI50 (UACC-62 melanoma): 5.01 nM
GI50 (HCT-15 colon): 118 nM and 51.7 nM
GI50 (NCI-H23 lung): 11.6 nM
TGI (NCI-H23 lung): 209 nM and 108 nM and 21.7 nM

CCc1n[nH]c(=O)n1/N=C/c1ccc(/C=N/n2c(CC)n[nH]c2=O)cc1
TGI (NCI/ADR-RES ovarian): > 100000 nM
TGI (SF-295 CNS): > 100000 nM
TGI (EKVX NSCLC): > 100000 nM
TGI (LOX IMVI melanoma): > 100000 nM
TGI (SN12C renal): > 100000 nM
TGI (COLO 205 colon): > 100000 nM
TGI (HT29 colon): > 100000 nM
TGI (KM12 colon): > 100000 nM
TGI (SK-MEL-2 melanoma): > 100000 nM
TGI (SW-620 colon): > 100000 nM
TGI (NCI-H226 lung): > 100000 nM
TGI (BT-549 breast): > 100000 nM
TGI (MALME-3M melanoma): > 100000 nM
TGI (OVCAR-4 ovarian): > 100000 nM
TGI (NCI-H460 lung): > 100000 nM
TGI (IGROV1 ovarian): > 100000 nM
TGI (TK-10 renal): > 100000 nM
TGI (MCF7 breast): > 100000 nM
TGI (MOLT-4 leukemia): > 100000 nM
TGI (SK-MEL-5 melanoma): > 100000 nM
TGI (OVCAR-8 ovarian): > 100000 nM
TGI (CAKI-1 renal): > 100000 nM
TGI (PC-3 prostate): > 100000 nM
TGI (RPMI-8226 leukemia): > 100000 nM
TGI (UO-31 renal): > 100000 nM
TGI (SF-268 CNS): > 100000 nM
TGI (CCRF-CEM leukemia): > 100000 nM
TGI (HOP-62 NSCLC): > 100000 nM
TGI (T-47D breast): > 100000 nM
TGI (HS 578T breast): > 100000 nM
TGI (SNB-19 CNS): > 100000 nM
TGI (A498 renal): > 100000 nM
TGI (NCI-H522 lung): > 100000 nM
TGI (K-562 leukemia): > 100000 nM
TGI (HL-60(TB) leukemia): > 100000 nM
TGI (HCT-116 colon): > 100000 nM
TGI (M14 melanoma): > 100000 nM
TGI (SK-MEL-28 melanoma): > 100000 nM
TGI (A549 NSCLC): > 100000 nM
TGI (MDA-N): > 100000 nM
TGI (MDA-MB-435): > 100000 nM
TGI (OVCAR-3 ovarian): > 100000 nM
TGI (U251 CNS): > 100000 nM
TGI (ACHN renal): > 100000 nM
TGI (MDA-MB-231 breast): > 100000 nM
TGI (OVCAR-5 ovarian): > 100000 nM
TGI (786-0 renal): > 100000 nM
TGI (DU-145 prostate): > 100000 nM
TGI (RXF 393 renal): > 100000 nM
TGI (UACC-257 melanoma): > 100000 nM
TGI (UACC-62 melanoma): > 100000 nM
TGI (HCT-15 colon): > 100000 nM
TGI (NCI-H23 lung): > 100000 nM
